Values quoted from earlier work in patent publication US20100069397A1, “SEXUAL DYSFUNCTION COMPOUNDS” (Pharmacia AB, priority 2002, published 2010).

Experiments:
[1] = dose of 1-3 mg, taken 0.5-1 h before sexual activity; per WO 00/40226
[2] = free base; per European Patent Application No. 0 960 621

solubility in water [2]	Compound	therapeutic effect in sexual dysfunction [1]
	CN[C@@H]1Cc2cccc3[nH]c(=O)n(c23)C1.O=C(O)/C=C\C(=O)O [(R)-5,6-dihydro-5-(methylamino)-4H-imidazo[4,5-ij]-quinolin-2(1H)-one (Z)-2-butenedioate (1:1)]	therapeutically effective
extremely low solubility in water	CCCc1nn(C)c2c(=O)[nH]c(-c3cc(S(=O)(=O)N4CCN(C)CC4)ccc3OCC)nc12 [sildenafil]	
